The compounds below were run against T1, human GluN1^FA,TL/GluN3A receptors (Homo sapiens, UniProt Q8TCU5) (assay: Two-electrode voltage-clamp recordings of GluN1^FA,TL/GluN3A receptors in Xenopus oocytes). Details: hGluN1^FA,TL/hGluN3A; read-out: IC50.
T1 construct: Human GluN3A (NP_597702.2) and rat GluN3B (NP_579842.2) were synthesized and subcloned into SP6 plasmids; expressed in transfected cells; host or cells: Xenopus laevis oocytes, cRNA injection (GluN1:GluN3 1:3)
Format: cell-based
Text: cDNA encoding human wild-type (WT) GluN1-1a (GenBank accession numbers NP_015566, hereafter GluN1) and rat GluN1-1a (NP_058706.1) were synthesized and subcloned into pGEMHE plasmid; some experiments used the rat splice variant GluN1-4a (NP_001257531.1). Human GluN3A (NP_597702.2) and rat GluN3B (NP_579842.2) were synthesized and subcloned into SP6 plasmids. For most experiments, human GluN1 was co-expressed with human GluN3A, except for mutagenesis experiments where rat GluN1 was co-expressed with human GluN3A. Rat GluN1-4a was always expressed with rat GluN3B.
Defolliculated Xenopus laevis oocytes (stage V-VI) were obtained from Ecocyte BioScience (Austin, Texas), or prepared from commercially available Xenopus ovaries (Xenopus 1, Dexter, MI) as previously described (Hansen, et al., Mol. Pharmacol., 2013). A Drummond Nanoject II (Broomall, PA) was used to inject oocytes with cRNAs encoding GluN1 and GluN3 at a 1:3 ratio in RNase-free water. The cRNA was diluted as needed to give responses with amplitudes ranging between 200-2000 nA (0.2-10 ng total cRNA). Following cRNA injection, the oocytes were stored at 15-19° C. in Barth's solution that contained (in mM) 88 NaCl, 2.4 NaHCO3, 1 KCl, 0.33 Ca(NO3)2, 0.41 CaCl2), 0.82 MgSO4, and 5 Tris-HCl (pH 7.4 with NaOH), supplemented with 1 μg/ml streptomycin (Invitrogen, Carlsbad, CA) and 100 μg/ml gentamicin (Fisher Scientific, Pittsburgh, PA). Recordings were performed 2-5 days following cRNA microinjection at room temperature (23° C.) using a two-electrode voltage-clamp amplifier (OC725, Warner Instrument, Hamilton, CT). The signal was low-pass filtered at 10-20 Hz (4-pole, −3 dB Bessel) and digitized at the Nyquist rate using PCI-6025E or USB-6212 BNC data acquisition boards (National Instruments, Austin, TX) using EasyOocyte (http://www.easyoocyte.io/). Oocytes were placed in a custom-made chamber and continuously perfused (2.5 ml/min) with oocyte recording solution containing (in mM) 90 NaCl, 1 KCl, 10 HEPES, 0.5-1.0 BaCl2, and 0.01 EDTA (pH 7.4 with NaOH). Solutions were applied by gravity, and solution exchange was controlled through a rotary valve (Hamilton, Reno, NV). Recording electrodes were filled with 0.3-3.0 M KCl, and current responses were recorded at a holding potential of −40 mV.
Response (%)=(100−minimum)/(1+([concentration]/IC50)^nH)+minimum (2) • where nH is the Hill slope, IC50 is the concentration that produces a half-maximal effect, and minimum is the degree of residual inhibition at a saturating concentration of the negative allosteric modulator.
The afore-referenced compounds were screened in the same assay as EU1180-438 to determine their effects on hGluN1^FA,TL/hGluN3A receptors. Selected compounds that inhibited by more than 20% at the concentration at which they were initially evaluated (either 10 or 30 μM) were analyzed further, and a dose-response curve was generated to determine their IC50 values.

T1 sequence (Q8TCU5 24-1115, other chains not shown): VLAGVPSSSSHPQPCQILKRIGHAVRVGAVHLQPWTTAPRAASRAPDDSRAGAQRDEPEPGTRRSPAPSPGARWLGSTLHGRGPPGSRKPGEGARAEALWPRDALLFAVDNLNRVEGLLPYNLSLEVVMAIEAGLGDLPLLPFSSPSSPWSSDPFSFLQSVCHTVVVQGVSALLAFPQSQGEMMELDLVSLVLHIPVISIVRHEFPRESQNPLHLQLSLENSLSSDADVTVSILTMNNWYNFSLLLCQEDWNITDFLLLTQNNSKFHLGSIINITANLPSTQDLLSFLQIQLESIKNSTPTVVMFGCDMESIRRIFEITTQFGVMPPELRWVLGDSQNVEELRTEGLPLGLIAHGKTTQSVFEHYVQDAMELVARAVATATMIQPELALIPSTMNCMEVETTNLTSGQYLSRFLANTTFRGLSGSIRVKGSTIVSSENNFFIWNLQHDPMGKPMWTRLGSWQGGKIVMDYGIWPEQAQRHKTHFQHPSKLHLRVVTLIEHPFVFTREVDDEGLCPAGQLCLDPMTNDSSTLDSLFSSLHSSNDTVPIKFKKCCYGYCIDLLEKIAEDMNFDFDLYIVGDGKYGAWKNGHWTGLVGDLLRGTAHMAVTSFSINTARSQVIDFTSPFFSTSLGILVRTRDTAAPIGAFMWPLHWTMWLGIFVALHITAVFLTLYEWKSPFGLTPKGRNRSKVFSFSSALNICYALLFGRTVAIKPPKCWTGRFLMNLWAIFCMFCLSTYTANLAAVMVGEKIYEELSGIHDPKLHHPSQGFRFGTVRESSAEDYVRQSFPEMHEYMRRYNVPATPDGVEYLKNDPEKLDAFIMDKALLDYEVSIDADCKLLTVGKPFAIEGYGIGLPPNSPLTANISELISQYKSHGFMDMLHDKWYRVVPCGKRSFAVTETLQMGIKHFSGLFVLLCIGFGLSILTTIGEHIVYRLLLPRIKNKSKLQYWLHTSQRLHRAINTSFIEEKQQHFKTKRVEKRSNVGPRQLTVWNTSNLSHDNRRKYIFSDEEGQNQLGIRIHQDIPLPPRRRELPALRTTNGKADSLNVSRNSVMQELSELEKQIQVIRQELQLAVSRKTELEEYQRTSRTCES

Work on `COc1cc(F)c(C(COc2cccc(C)n2)N2Cc3ccc(Cl)cc3C2=O)c(F)c1` (centres unmarked) [EU1180-611, 6-Chloro-2-(1-(2,6-difluoro-4-methoxyphenyl)-2-((6-methylpyridin-2-yl)oxy)ethyl)isoindolin-1-one] yielded an IC50 of 63 µM.

Same assay, conditions: read-out: hGluN1^FA,TL/hGluN3A (100 × Idrug/Icontrol at 30 μM drug)

In order of rising remaining activity at 30 µM:
1. Cc1cccc(OCC(c2ccc(OC(C)C)cc2)N2Cc3ccc(F)cc3C2=O)n1 (centres unmarked) [EU1180-512, 6-fluoro-2-(1-(4-isopropoxyphenyl)-2-((6-methylpyridin-2-yl)oxy)ethyl)isoindolin-1-one]  36%
2. COc1ccc(OCC(c2ccc(OC)cc2F)N2Cc3ccccc3C2=O)cc1 (centres unmarked) [EU1180-530, 2-(1-(2-Fluoro-4-methoxyphenyl)-2-(4-methoxyphenoxy)ethyl)isoindolin-1-one]  41%
3. COc1cc(F)c(C(COc2cccc(C)n2)N2Cc3ccc(Cl)cc3C2=O)c(F)c1 (centres unmarked) [EU1180-611, 6-Chloro-2-(1-(2,6-difluoro-4-methoxyphenyl)-2-((6-methylpyridin-2-yl)oxy)ethyl)isoindolin-1-one]  57%
4. COc1ccc(C(COc2cccc(C)n2)N2Cc3ccc(F)cc3C2=O)cc1 (centres unmarked) [EU1180-599, 6-Fluoro-2-(1-(4-methoxyphenyl)-2-((6-methylpyridin-2-yl)oxy)ethyl)isoindolin-1-one]  57%
5. COc1ccc(OCC(c2ccc(OC)cc2)N2Cc3ccc(Br)cc3C2=O)cc1 (centres unmarked) [EU1180-520, 6-Bromo-2-(2-(4-methoxyphenoxy)-1-(4-methoxyphenyl)ethyl)isoindolin-1-one]  64%
6. COc1ccc(C(COc2cccc(C)n2)N2Cc3cc(Br)ccc3C2=O)c(F)c1 (centres unmarked) [EU1180-606, 5-Bromo-2-(1-(2-fluoro-4-methoxyphenyl)-2-((6-methylpyridin-2-yl)oxy)ethyl)isoindolin-1-on]  66%
7. COc1ccc(OCC(c2ccc(OC)cc2F)N2Cc3ccc(F)cc3C2=O)cc1 (centres unmarked) [EU1180-537, 6-Fluoro-2-(1-(2-fluoro-4-methoxyphenyl)-2-(4-methoxyphenoxy)ethyl)isoindolin-1-one]  66%
8. COc1ccc(C(COc2cccc(C)n2)N2Cc3ccc(Br)cc3C2=O)cc1 (centres unmarked) [EU1180-597, 6-Bromo-2-(1-(4-methoxyphenyl)-2-((6-methylpyridin-2-yl)oxy)ethyl)isoindolin-1-one]  69%
9. COc1ccc(C(COc2cccc(C)n2)N2Cc3ccc(F)cc3C2=O)c(F)c1 (centres unmarked) [EU1180-602, 6-Fluoro-2-(1-(2-fluoro-4-methoxyphenyl)-2-((6-methylpyridin-2-yl)oxy)ethyl)isoindolin-1-one]  73%
10. COc1ccc(OCC(c2c(F)cc(OC)cc2F)N2Cc3ccccc3C2=O)cc1 (centres unmarked) [EU1180-545, 2-(1-(2,6-Difluoro-4-methoxyphenyl)-2-(4-methoxyphenoxy)ethyl)isoindolin-1-one]  74%
11. COc1ccc(C(COc2cccc(C)n2)N2Cc3ccc(Cl)cc3C2=O)cc1 (centres unmarked) [EU1180-595, 6-Chloro-2-(1-(4-methoxyphenyl)-2-((6-methylpyridin-2-yl)oxy)ethyl)isoindolin-1-one]  75%
12. CCOc1ccc(OCC(c2ccc(OC(C)C)cc2)N2Cc3ccc(Br)cc3C2=O)cc1 (centres unmarked) [EU1180-592, 6-bromo-2-(2-(4-ethoxyphenoxy)-1-(4-isopropoxyphenyl)ethyl)isoindolin-1-one]  78%
13. COc1ccc(C(COc2cccc(C)n2)N2Cc3cc(F)ccc3C2=O)c(F)c1 (centres unmarked) [EU1180-601, 5-Fluoro-2-(1-(2-fluoro-4-methoxyphenyl)-2-((6-methylpyridin-2-yl)oxy)ethyl)isoindolin-1-one]  79%
14. COc1ccc(C(COc2cccc(C)n2)N2Cc3cc(Cl)ccc3C2=O)c(F)c1 (centres unmarked) [EU1180-604, 5-Chloro-2-(1-(2-fluoro-4-methoxyphenyl)-2-((6-methylpyridin-2-yl)oxy)ethyl)isoindolin-1-one]  81%
15. COc1ccc(OCC(c2ccc(OC)c(OC)c2)N2Cc3ccc(F)cc3C2=O)cc1 (centres unmarked) [EU1180-529, 2-(1-(3,4-Dimethoxyphenyl)-2-(4-methoxyphenoxy)ethyl)-6-fluoroisoindolin-1-one]  84%
16. Cc1cccc(OCC(c2ccc(OC(C)C)cc2)N2Cc3cc(F)ccc3C2=O)n1 (centres unmarked) [EU1180-513, 5-fluoro-2-(1-(4-isopropoxyphenyl)-2-((6-methylpyridin-2-yl)oxy)ethyl)isoindolin-1-one]  87%
17. CCOc1ccc(OCC(c2ccc(OC(C)C)cc2)N2Cc3cc(Cl)ccc3C2=O)cc1 (centres unmarked) [EU1180-589, 5-chloro-2-(2-(4-ethoxyphenoxy)-1-(4-isopropoxyphenyl)ethyl)isoindolin-1-one]  87%
18. COc1ccc(OCC(c2ccc(OC(C)C)cc2)N2Cc3cc(F)ccc3C2=O)cc1 (centres unmarked) [EU1180-561, 5-fluoro-2-(1-(4-isopropoxyphenyl)-2-(4-methoxyphenoxy)ethyl)isoindolin-1-one]  88%
19. COc1cc(F)c(C(COc2cccc(C)n2)N2Cc3cc(F)ccc3C2=O)c(F)c1 (centres unmarked) [EU1180-613, 2-(1-(2,6-Difluoro-4-methoxyphenyl)-2-((6-methylpyridin-2-yl)oxy)ethyl)-5-fluoroisoindolin-1-one]  89%
20. COc1ccc(OCC(c2c(F)cc(OC)cc2F)N2Cc3cc(F)ccc3C2=O)cc1 (centres unmarked) [EU1180-551, 2-(1-(2,6-Difluoro-4-methoxyphenyl)-2-(4-methoxyphenoxy)ethyl)-5-fluoroisoindolin-1-one]  92%
21. COc1ccc(OCC(c2ccc(OC)c(OC)c2)N2Cc3ccc(Br)cc3C2=O)cc1 (centres unmarked) [EU1180-527, 6-Bromo-2-(1-(3,4-dimethoxyphenyl)-2-(4-methoxyphenoxy)ethyl)isoindolin-1-one]  94%
22. COc1ccc(OCC(c2ccc(OC(C)C)cc2)N2Cc3ccc(Cl)cc3C2=O)cc1 (centres unmarked) [EU1180-564, 6-chloro-2-(1-(4-isopropoxyphenyl)-2-(4-methoxyphenoxy)ethyl)isoindolin-1-one]  96%
23. COc1ccc(OCC(c2c(F)cc(OC)cc2F)N2Cc3cc(Cl)ccc3C2=O)cc1 (centres unmarked) [EU1180-547, 5-Chloro-2-(1-(2,6-difluoro-4-methoxyphenyl)-2-(4-methoxyphenoxy)ethyl)isoindolin-1-one]  98%
24. COc1ccc(OCC(c2ccc(OC(C)C)cc2)N2Cc3ccc(Br)cc3C2=O)cc1 (centres unmarked) [EU1180-562, 6-bromo-2-(1-(4-isopropoxyphenyl)-2-(4-methoxyphenoxy)ethyl)isoindolin-1-one]  98%
25. CCOc1ccc(OCC(c2ccc(OC(C)C)cc2)N2Cc3ccc(C(F)(F)F)cc3C2=O)cc1 (centres unmarked) [EU1180-587, 2-(2-(4-ethoxyphenoxy)-1-(4-isopropoxyphenyl)ethyl)-6-(trifluoromethyl)isoindolin-1-one]  98%
26. COc1ccc(OCC(c2ccc(OC)cc2F)N2Cc3cc(Br)ccc3C2=O)cc1 (centres unmarked) [EU1180-534, 5-Bromo-2-(1-(2-fluoro-4-methoxyphenyl)-2-(4-methoxyphenoxy)ethyl)isoindolin-1-one]  99%
27. CC(C)Oc1ccc(C(COc2ccc(OC(F)(F)F)cc2)N2Cc3cc(Cl)ccc3C2=O)cc1 (centres unmarked) [EU1180-541, 5-chloro-2-(1-(4-isopropoxyphenyl)-2-(4-(trifluoromethoxy)phenoxy)ethyl)isoindolin-1-one]  100%
28. COc1ccc(OCC(c2ccc(OC)c(OC)c2)N2Cc3cc(Br)ccc3C2=O)cc1 (centres unmarked) [EU1180-526, 5-Bromo-2-(1-(3,4-dimethoxyphenyl)-2-(4-methoxyphenoxy)ethyl)isoindolin-1-one]  101%
